Experimental data from patent US9757375B2, “Compounds that inhibit human DNA ligases and methods of treating cancer” (University of Maryland, Baltimore, priority 2007, dated 2017).
“Also recorded” adds a separate entry of the source. Like-named read-outs stand apart in the source and are kept apart here.

Assays:
hLigI = target: T1, hLigI (Homo sapiens, UniProt P18858); assay: High-throughput fluorescence-based DNA joining (ligation) assay; assay type: biochemical; details: for inhibition of hLigI (DNA ligase I), in words: in vitro screen, 100 μmol/L, the 15 hLigI inhibitors inhibited by >50%
T1 construct: made in house
Experimental: (§1) Candidate ligase inhibitors identified by CADD were assayed for their ability to inhibit hLigI and T4 DNA ligase using a high-throughput, fluorescence energy transfer-based DNA joining assay (22). Duplicate reactions (30 μL) containing 10 pmol of nicked DNA substrate and either 0.25 pmol of hLigI or 10 units of T4 DNA ligase were incubated in the presence or absence of 100 μmol/L of the putative inhibitor. DNA binding by the candidate DNA ligase inhibitors was measured by displacement of ethidium bromide from DNA as previously described (30).
(§2) The method for screening compounds comprises testing the compound for the ability to inhibit human DNA ligases I, III and IV with a high throughput fluorescence-based ligation assay. In this assay, phosphodiester bond formation covalently links together two oligonucleotides, one of which is a fluorescent donor AF488 that is 11 nucleotides from the 3′ terminus and the other contains a fluorescence acceptor and quencher, BHQ1 that is 15 nucleotides from the 5′ terminus. When these oligonucleotides are present in separate duplexes and in the same nicked or intact duplex, there is no significant quenching of fluorescence because the donor and acceptor are too far apart. As single-strands neither the AF488 oligonucleotide nor the BHQ1 oligonucleotides have significant secondary structure. However, when these oligonucleotides are ligated together, the resultant single strand forms a stable hairpin structure, in which the AF488 and BHQ1 groups are very close together, resulting in efficient intra-molecular quenching of fluorescence. Thus, in the DNA joining assay, the DNA substrate is denatured after incubation with the DNA ligase and then renatured in the presence of a 20-fold excess of an oligonucleotide that is identical to the ligated strand containing the fluorescent door and acceptor except that it lacks these modifications. Using this assay, DNA joining, which results in reduced fluorescence at 518 nm, can be measured rapidly, quantitatively and with high-throughput using a fluorescence plate reader.
(§3) Applicants developed a novel high throughput fluorescence-based ligation assay by modifying the sequence of the oligos to optimize hairpin formation by the single strand ligated product of the high throughput fluorescence-based ligation assay of Chen et al (22). […] Compound stock solutions, which were 10 mM in 0.5% DMSO, were diluted in 0.5% DMSO. Human DNA ligases I and III were assayed with a nicked DNA substrate whereas as the substrate for human DNA ligase IV was two oligonucleotide duplexes with short complementary single strand ends.

human DNA ligase IV = human DNA ligase IV (Homo sapiens, UniProt P49917); assay: as above; assay type: biochemical; details: for % activity Inhibition hLigIV 100 uM: Ø not defined (0 in Table 5A)
Text: as §2, §3

human DNA ligase III = target: T2, human DNA ligase III (Homo sapiens, UniProt P49916); assay: as above; assay type: biochemical
T2 sequence (P49916 1-862 isoform P49916-4): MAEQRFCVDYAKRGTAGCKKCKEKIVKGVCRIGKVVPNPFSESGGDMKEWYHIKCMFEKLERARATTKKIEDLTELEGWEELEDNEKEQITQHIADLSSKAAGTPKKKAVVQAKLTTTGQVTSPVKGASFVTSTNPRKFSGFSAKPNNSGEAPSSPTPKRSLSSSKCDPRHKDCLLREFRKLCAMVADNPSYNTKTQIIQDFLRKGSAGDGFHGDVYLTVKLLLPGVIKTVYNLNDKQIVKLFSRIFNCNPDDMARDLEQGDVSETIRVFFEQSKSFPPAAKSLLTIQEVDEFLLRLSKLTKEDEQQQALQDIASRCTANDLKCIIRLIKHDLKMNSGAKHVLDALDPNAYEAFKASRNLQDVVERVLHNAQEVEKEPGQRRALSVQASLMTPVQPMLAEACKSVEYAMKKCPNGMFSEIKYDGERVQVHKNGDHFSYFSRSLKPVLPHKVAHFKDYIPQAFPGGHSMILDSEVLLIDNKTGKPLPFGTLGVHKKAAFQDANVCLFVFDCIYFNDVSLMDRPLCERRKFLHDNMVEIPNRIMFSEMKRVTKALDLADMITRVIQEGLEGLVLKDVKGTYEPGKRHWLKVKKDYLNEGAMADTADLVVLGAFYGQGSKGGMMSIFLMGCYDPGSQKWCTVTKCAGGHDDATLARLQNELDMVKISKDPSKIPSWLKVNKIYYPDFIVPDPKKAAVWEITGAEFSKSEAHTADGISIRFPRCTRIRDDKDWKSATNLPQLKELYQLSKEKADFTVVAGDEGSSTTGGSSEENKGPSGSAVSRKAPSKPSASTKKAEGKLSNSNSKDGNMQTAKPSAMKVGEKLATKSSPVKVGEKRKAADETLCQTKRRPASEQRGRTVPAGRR
Text: as §2, §3

T4 DNA ligase = target: T3, T4 DNA ligase (Enterobacteria phage T4, UniProt P00970); assay: High-throughput fluorescence-based DNA joining assay, non-specific inhibitor control; assay type: biochemical, bacteriophage T4
T3 construct: purchased NEB
T3 sequence (P00970 1-487): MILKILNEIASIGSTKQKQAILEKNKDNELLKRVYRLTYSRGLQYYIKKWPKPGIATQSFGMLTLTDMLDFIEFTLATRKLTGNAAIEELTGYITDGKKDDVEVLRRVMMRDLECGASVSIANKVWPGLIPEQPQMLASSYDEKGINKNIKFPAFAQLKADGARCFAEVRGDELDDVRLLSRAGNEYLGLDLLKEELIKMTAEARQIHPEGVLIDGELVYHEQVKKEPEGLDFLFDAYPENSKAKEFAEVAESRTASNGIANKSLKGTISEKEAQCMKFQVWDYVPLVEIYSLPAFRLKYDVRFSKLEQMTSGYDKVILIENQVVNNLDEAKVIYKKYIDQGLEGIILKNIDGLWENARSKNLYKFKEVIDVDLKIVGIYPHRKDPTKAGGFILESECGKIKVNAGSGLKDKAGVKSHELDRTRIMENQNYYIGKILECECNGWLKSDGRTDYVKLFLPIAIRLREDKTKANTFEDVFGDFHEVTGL
Experimental: as §1
In addition, to identify compounds that may be non-specific inhibitors of DNA joining, the 192 compounds were also assayed for their ability to inhibit bacteriophage T4 DNA ligase, an enzyme that utilizes the same reaction mechanism as hLigI, has similar adenylation and OB-fold domains but lacks a DBD domain. (6) Although this is also an ATP-dependent DNA ligase, it lacks the domain containing the binding pocket targeted by the in silico screen. Compounds that inhibited T4 DNA ligase were eliminated as non-specific inhibitors that most likely bind to the DNA.

[1] = 100 uM, read-out: % activity Inhibition hLigI 100 uM
[2] = 100 uM, Ø not defined (0 in Table 5A), read-out: % activity Inhibition hLigIII 100 uM
[3] = read-out: % activity Inhibition LigT4 100 uM
[4] = 100 uM, Ø not defined (0 in Table 5A)
[5] = 100 μM, read-out: % of inhibition @ 100 μM (Helen's data) hLigI
[6] = read-out: % of inhibition @ 100 μM (Helen's data) hLigIV
[7] = read-out: % of inhibition @ 100 μM (Helen's data) hLigIII

T1 sequence (P18858 whole entry): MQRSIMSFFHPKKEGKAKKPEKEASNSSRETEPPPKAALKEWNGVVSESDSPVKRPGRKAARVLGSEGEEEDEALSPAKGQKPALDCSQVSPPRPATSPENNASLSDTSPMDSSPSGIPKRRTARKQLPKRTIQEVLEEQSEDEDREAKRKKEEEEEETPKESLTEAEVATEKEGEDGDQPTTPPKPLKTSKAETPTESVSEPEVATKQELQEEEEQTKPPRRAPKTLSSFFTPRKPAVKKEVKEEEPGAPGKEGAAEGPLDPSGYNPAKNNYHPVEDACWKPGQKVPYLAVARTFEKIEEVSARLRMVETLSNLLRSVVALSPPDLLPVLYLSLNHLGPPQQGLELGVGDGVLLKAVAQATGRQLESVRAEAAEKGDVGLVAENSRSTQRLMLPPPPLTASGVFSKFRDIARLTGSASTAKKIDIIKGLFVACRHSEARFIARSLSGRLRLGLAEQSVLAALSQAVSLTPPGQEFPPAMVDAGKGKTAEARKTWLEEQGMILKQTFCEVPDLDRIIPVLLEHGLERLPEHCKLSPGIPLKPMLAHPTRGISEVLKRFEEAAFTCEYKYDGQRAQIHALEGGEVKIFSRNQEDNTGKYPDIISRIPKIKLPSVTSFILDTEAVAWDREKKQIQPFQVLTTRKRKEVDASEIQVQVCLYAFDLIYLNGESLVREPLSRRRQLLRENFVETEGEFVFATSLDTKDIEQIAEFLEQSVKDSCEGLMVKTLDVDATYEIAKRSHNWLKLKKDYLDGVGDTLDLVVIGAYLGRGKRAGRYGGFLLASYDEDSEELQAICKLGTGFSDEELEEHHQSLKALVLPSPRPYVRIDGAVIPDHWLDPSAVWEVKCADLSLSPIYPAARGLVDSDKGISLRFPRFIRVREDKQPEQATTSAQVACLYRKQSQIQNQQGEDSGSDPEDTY
Sequence of human DNA ligase IV (P49917 whole entry): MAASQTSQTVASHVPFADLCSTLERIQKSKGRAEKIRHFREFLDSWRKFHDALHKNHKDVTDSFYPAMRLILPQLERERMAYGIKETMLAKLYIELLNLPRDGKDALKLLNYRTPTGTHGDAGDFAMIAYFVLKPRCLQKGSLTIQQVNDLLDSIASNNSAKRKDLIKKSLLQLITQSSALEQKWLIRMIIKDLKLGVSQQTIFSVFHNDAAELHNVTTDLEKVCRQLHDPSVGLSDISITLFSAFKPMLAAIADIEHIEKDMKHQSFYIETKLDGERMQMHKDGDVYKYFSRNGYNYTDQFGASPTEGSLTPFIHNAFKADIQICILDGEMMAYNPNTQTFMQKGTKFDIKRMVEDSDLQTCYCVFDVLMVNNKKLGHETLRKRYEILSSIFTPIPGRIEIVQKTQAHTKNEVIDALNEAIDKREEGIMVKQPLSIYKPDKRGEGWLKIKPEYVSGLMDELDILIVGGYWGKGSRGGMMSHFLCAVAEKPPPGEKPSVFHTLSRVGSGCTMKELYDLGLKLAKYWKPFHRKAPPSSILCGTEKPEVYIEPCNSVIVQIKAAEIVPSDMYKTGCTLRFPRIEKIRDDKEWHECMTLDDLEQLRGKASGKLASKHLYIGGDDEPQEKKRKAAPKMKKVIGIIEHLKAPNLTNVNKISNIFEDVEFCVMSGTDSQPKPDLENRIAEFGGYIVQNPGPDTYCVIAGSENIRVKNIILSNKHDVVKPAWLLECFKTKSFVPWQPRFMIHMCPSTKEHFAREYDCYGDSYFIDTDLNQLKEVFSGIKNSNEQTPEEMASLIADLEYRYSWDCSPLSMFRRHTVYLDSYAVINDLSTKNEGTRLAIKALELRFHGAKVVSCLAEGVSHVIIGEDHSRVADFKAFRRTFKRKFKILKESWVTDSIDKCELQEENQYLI
Sequence of human DNA ligase IV (Q13426 whole entry partner): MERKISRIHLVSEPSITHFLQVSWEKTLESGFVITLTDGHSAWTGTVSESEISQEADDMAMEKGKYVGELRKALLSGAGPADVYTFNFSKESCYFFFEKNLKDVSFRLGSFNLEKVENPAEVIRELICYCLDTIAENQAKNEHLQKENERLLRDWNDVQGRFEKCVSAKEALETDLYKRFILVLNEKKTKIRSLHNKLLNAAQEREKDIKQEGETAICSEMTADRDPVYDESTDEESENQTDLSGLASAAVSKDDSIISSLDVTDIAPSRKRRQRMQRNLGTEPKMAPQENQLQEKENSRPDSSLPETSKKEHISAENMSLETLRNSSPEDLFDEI

Row | SMILES | inhibition at 100 µM (hLigI; [1]) [%] | % activity Inhibition hLigIV 100 uM (human DNA ligase IV) | inhibition at 100 µM (T4 DNA ligase; [3]) [%] | % activity Inhibition hLigIII 100 uM (human DNA ligase III; [4]) | other results
1 | O=C1Nc2c(C(=O)O)cccc2C1=O [Compound 25] | 59.3 ± 7.5 | Ø | 12.9 ± 6.3 |  | inhibition at 100 µM (hLigI; 100 μM, read-out: In vitro % inhib hLigI 100): 59 ± 8%; inhibition of hLigI (DNA ligase I), in words (hLigI): inhibited hLigI; also recorded: specifically inhibit DNA ligases I and III; inhibition at 100 µM (human DNA ligase IV; read-out: In vitro % inhib hLigIV 100): 0%; inhibition at 100 µM (human DNA ligase III; 100 μM, read-out: In vitro % inhib hLigIII 100): 73 ± 5%; inhibition at 100 µM (human DNA ligase III; [2]): 72.8 ± 4.8%; inhibition of human DNA ligase III, in words (human DNA ligase III; in vitro screen): specifically inhibit DNA ligases I and III; inhibition at 100 µM (T4 DNA ligase; 100 μM, read-out: In vitro % inhib T4 100): 13 ± 6%
2 | COC(=O)c1ccc(-n2nnnc2SCC(=O)c2ccc(O)c(O)c2)cc1 [Compound 32] |  |  |  |  | inhibition of hLigI (DNA ligase I), in words (hLigI): inhibited hLigI
3 | Cc1[nH]c2ccc(C(=O)O)cc2c1CC(=O)O [Compound 35] | 38.7 | Ø | 3.7 ± 2.3 | Ø | 
4 | O=C(O)Cn1nnnc1-c1ccc(F)cc1 [Compound 37] | 25.2 ± 14.1 | Ø | 3.7 | Ø | 
5 | O=C(O)c1ccc(C(=O)c2ccc3c(c2)C(=O)N(CCO)C3=O)cc1 [Compound 46] |  | Ø |  |  | % activity Inhibition hLigI 100 uM (hLigI; 100 uM): Ø; inhibition at 100 µM (human DNA ligase III; [2]): 21.6 ± 8.56%
6 | O=C(O)c1ccc(Sc2ccccn2)c([N+](=O)[O-])c1 [Compound 47] | 24.2 ± 4.3 | Ø | 2.2 ± 0.7 | Ø | 
7 | CCC(Nc1ncnc2ccccc12)C(=O)O (stereo not drawn) [Compound 51] | 24.3 ± 13.5 | Ø | 0 | Ø | 
8 | O=C(O)c1ccc(C(=O)O)c(C(=O)O)c1 [Compound 53] | 36.4 ± 4.7 | Ø | 3.7 ± 4.8 | Ø | 
9 | Nc1nonc1C(=O)O [Compound 54] | 32.2 ± 10.5 | Ø | 6.9 ± 0.45 | Ø | 
10 | COC(=O)c1ccc(S(=O)(=O)O)o1 [Compound 55] |  | Ø |  | Ø | % activity Inhibition hLigI 100 uM (hLigI; 100 uM): 7.5 ± 9.3%; % activity Inhibition LigT4 100 uM (T4 DNA ligase): 0.58 ± 3.1%
11 | O=C(NN=Cc1ccc(S(=O)(=O)O)o1)c1ccccc1O [Compound 79] |  |  |  |  | % of inhibition @ 100 μM (Helen's data) hLigI (hLigI; 100 μM): NI (NI- no inhibition); % of inhibition @ 100 μM (Helen's data) hLigIV (human DNA ligase IV): NI (NI- no inhibition); % of inhibition @ 100 μM (Helen's data) hLigIII (human DNA ligase III; 100 μM): NI (NI- no inhibition)
12 | O=C(O)CN1C(=O)c2ccc([N+](=O)[O-])cc2C1=O [Compound 90] | 20.7 ± 4.8 | Ø | 1.6 ± 3.1 | Ø | 
13 | COc1cccc(Cn2nnc(C(=O)O)c2C(=O)O)c1 [Compound 103] | 23.1 ± 1.8 | Ø | 6.2 ± 4.3 | Ø | 
14 | N#CCSc1nnc(SCC#N)s1 [Compound 123] |  |  |  |  | inhibition of hLigI (DNA ligase I), in words (hLigI): inhibited hLigI
15 | COC(=O)c1scc(Br)c1O [Compound 124] |  |  |  |  | inhibition at 100 µM (hLigI; [5]): < 20%; inhibition at 100 µM (human DNA ligase IV; [6]): < 20%; inhibition at 100 µM (human DNA ligase III; [7]): < 20%
16 | Sc1nccc(-c2cccnc2)n1 [Compound 130] |  |  |  |  | inhibition at 100 µM (hLigI; [5]): < 20%; inhibition at 100 µM (human DNA ligase IV; [6]): < 20%; inhibition at 100 µM (human DNA ligase III; [7]): < 20%
17 | O=C(O)c1ccc2nccnc2c1 [Compound 175] |  |  |  |  | inhibition of hLigI (DNA ligase I), in words (hLigI): inhibited hLigI
18 | O=C(O)Cc1ccccc1S(=O)(=O)c1ccc(Cl)cc1 [Compound 193] |  | Ø |  | Ø | % activity Inhibition hLigI 100 uM (hLigI; 100 uM): 28.2 ± 34.4%; % of inhibition @ 100 μM (Helen's data) hLigI (hLigI; 100 μM): NI (NI- no inhibition); % of inhibition @ 100 μM (Helen's data) hLigIV (human DNA ligase IV): NI (NI- no inhibition); % of inhibition @ 100 μM (Helen's data) hLigIII (human DNA ligase III; 100 μM): NI (NI- no inhibition); % activity Inhibition LigT4 100 uM (T4 DNA ligase): 0.44 ± 2.1%
19 | COc1ccc(C(CC(=O)O)NC(=O)c2ccco2)cc1 (stereo not drawn) [Compound 207] | 20.7 ± 19 | Ø | 10 ± 2 |  | inhibition at 100 µM (human DNA ligase III; [2]): 25.8 ± 10.7%
20 | O=C(O)c1ccc([N+](=O)[O-])c(C(=O)O)n1 [Compound 212] |  |  |  |  | inhibition at 100 µM (hLigI; [5]): < 20%; inhibition at 100 µM (human DNA ligase IV; [6]): < 20%; inhibition at 100 µM (human DNA ligase III; [7]): < 20%
21 | Oc1nn(-c2ccc(Br)cc2)cc1Br [Compound 221] |  |  |  |  | inhibition at 100 µM (hLigI; [5]): > 20%; inhibition at 100 µM (human DNA ligase IV; [6]): < 20%; inhibition at 100 µM (human DNA ligase III; [7]): < 20%
